Tests used:
Format in all cases: in vivo
seeds = experiment: Classical antioxidants applied to seeds at much higher concentrations
seed = experiment: Replicated field plots comparing two lipoxygenase inhibitors as seed treatments, Safford, Arizona; settings: for Germination % / Seedling Ht. (cm) / Surviving Stand %: inhibitor coated at 2.0 g per kg dry seed; for Germination % / Seedling Ht. (cm) / Surviving Stand % / Emergence Coeff.: fungicide co-treatment, mean ± standard error; for Emergence Coeff.: smaller coefficient = faster seedling emergence, 2.0 g per kg dry seed
Description: The presence of lipoxygenase isoenzymes has always been considered a necessary enzymatic constituent of seed, with the enzyme especially predominant in oil seeds. The detrimental effects of lipoxygenase activity on the viability and storage attributes of seeds have been reported by a number of authors. (Leopold; Parrish; Pfeiffer, et al.: and Hajika, et al.)
Propyl gallate is the inhibitor and antioxidant of choice for inclusion in the improvement of U.S. Pat. No. 4,209,316 described in this application. […] Selected location: Safford, Arizona Experimental Research Station. Each data entry represents the mean of replicated random samples plus or minus the standard error. The smaller the emergence coefficient, the faster the speed of seedling emergence from the soil. All treatments except the first control received a fungicide co-treatment. Lipoxygenase inhibitors were coated on the seed at a rate of 2.0 grams per kilogram of dry seed.

Acala type cottons = experiment: Harvested seed cotton weight of container grown cottons, Tucson, Ariz.
Description: Table three illustrates the comparative advantage of the combination of buffered AMP and propyl gallate liquid formulation applied to two sets of Acala type cottons container grown in Tucson, Ariz. An extended harvest period was possible. Seed cotton was hand picked over several weeks. Bolls with fiber and seed were dried, individually weighed, and treatments were separated and bulked together. Osmocote complete fertilizer was applied twice—at two and four weeks—following the chemical formulation applications.

Molecule | enhancement of seed germination and viability traits (seeds) | Germination % (seed) [%] | Seedling Ht. (cm) (seed) | Surviving Stand % (seed) [%] | effectiveness as lipoxygenase inhibitor seed treatment (seed; seed treatment with inhibitor alone) | Emergence Coeff. (seed) | Combined weight of harvested seed cotton per group (in grams) (Acala type cottons; group one) [grams] | Combined weight of harvested seed cotton per group (in grams) (Acala type cottons; group two) [grams]
vitamin E | no enhancement | – | – | – | – | – | – | –
Oc1ccc(O)cc1 [Hydroquinone] | – | 22.9 ± 3.1 | 16.6 ± 0.4 | 60.6 ± 3.5 | effective | 0.50 ± 0.04 | – | –
Cc1cc(C(C)(C)C)c(O)c(C(C)(C)C)c1 [butylated hydroxylated toluene] | no enhancement | – | – | – | – | – | – | –
CCCOC(=O)c1cc(O)c(O)c(O)c1 [Propyl Gallate, propyl gallate] | – | 23.0 ± 2.3 | 17.3 ± 0.6 | 57.8 ± 3.0 | – | 0.52 ± 0.03 | 640 | 423
O=C1O[C@H]([C@@H](O)CO)C(O)=C1O [ascorbic acid] | no enhancement | – | – | – | – | – | – | –

Reference: patent publication US9538759B2, “Chemical compositions and methodology to enhance plant growth and development” (priority 2013, dated 2017)
